Results: patent publication US7049314B2, “Cyclopentyl indole derivatives” (Bristol-Myers Squibb Company, priority 2002, dated 2006)
Like-named read-outs stand apart in the source and are kept apart here.

What was measured:
[1] = target: T1, human norepinephrine transporters (Homo sapiens, UniProt P23975); experiment: Norepinephrine Transporter Binding Assay ([3H]-nisoxetine displacement, hNET cell membranes); settings: 2.7 nM [3H]-nisoxetine, 1 hr at 4° C., read-out: NE Reuptake (binding Ki)
T1 construct: host or cells: MDCK cells (also 'HEK-hNET cells'), membrane homogenates
Protocol: MDCK cells that stably express human norepinephrine transporters (HEK-hNET cells) were supplied by Receptor Biology, Inc. Pellets were resuspended by homogenization in buffer consisting of 50 mM Tris (pH 7.4 at 25° C.), 120 mM NaCl and 5 mM KCl. Membrane homogenates (200 μl/well, 8 ug protein) were incubated with 2.7 nM [^3H]-nisoxetine (specific activity=80 Ci/mMol) and increasing concentrations of test compounds for 1 hr at 4° C. in a total volume of 250 μl. The assay buffer consisted of 50 mM Tris (pH 7.4 at 25° C.), 120 mM NaCl and 5 mM KCl (pH 7.4 with conc. HCl). Plates were incubated for 1 hr at 4° C., then filtered through 0.5% PEI treated Whatman GF/B filters using a Brandel cell harvester. Filters were washed three times with 3 mL of ice-cold tris wash buffer. Non-specific binding was defined with 10 μM desipramine. Amount of radioligand bound in the presence and absence of competitor was analyzed by plotting (−)log drug concentration versus the amount of radioligand specifically bound. The midpoint of the displacement curve (IC50, nM), signifies the potency. Ki values were calculated using the method of Cheng and Prusoff (1973).

[2] = target: T2, human serotonin transporters (Homo sapiens, UniProt P31645); experiment: Serotonin Transporter Binding Assay ([3H]-citalopram displacement, HEK-hSERT cell membranes)
T2 construct: expressed in transfected cells
Protocol: HEK-293 cells that stably express human serotonin transporters (HEK-hSERT cells) were grown at 37° C. in 5% CO2 as a monolayer in medium consisting of EMEM supplemented with 10% fetal bovine serum and G418 sulfate (500 μg/mL). To prepare membranes for radioligand binding experiments, cells were rinsed twice with phosphate-buffered saline (138 mM NaCl, 4.1 mM KCl, 5.1 mM Na2PO4, 1.5 mM […], 11.1 mM glucose, pH 7.4). Cells were transferred from plates to polypropylene tubes (16×100 mm), centrifuged at 1,200×g for 5 min and were frozen at −80° C. until assay. Following centrifugation, pellets were resuspended by homogenization in buffer consisting of 50 mM Tris (pH 7.7 at 25° C.), 120 mM NaCl and 5 mM KCl and then centrifuged at 32,000×g for 10 min. Following centrifugation, supernatants were discarded and pellets were resuspended in buffer consisting of 50 mM Tris (pH 7.4 at 25° C.), 150 mM NaCl and 5 mM KCl. Membrane homogenates (200 μl/plate) were incubated with 1 nM [^3H]-citalopram (specific activity=85 Ci/mMol) and increasing concentrations of test compounds for 1 hr at 25° C. in a total volume of 250 μl. The assay buffer consisted of 50 mM Tris (pH 7.4 at 25° C.), 120 mM NaCl and 5 mM KCl (pH 7.4 with conc. HCl). Plates were incubated for 1 hr at 25° C., then filtered through 0.5% PEI treated Whatman GF/B filters using a Brandel cell harvester. Filters were washed three times with 3 mL of ice-cold tris wash buffer. Non-specific binding was defined with 10 μM fluoxetine. Amount of radioligand bound in the presence and absence of competitor was analyzed by plotting (−)log drug concentration versus the amount of radioligand specifically bound. The midpoint of the displacement curve (IC50, nM), signifies the potency. Ki values were calculated using the method of Cheng and Prusoff (1973).

[3] = HEK-hSERT membranes, 1 nM [3H]-citalopram, 1 hr at 25° C., read-out: SERT (binding Ki)

T2 sequence (P31645 whole entry): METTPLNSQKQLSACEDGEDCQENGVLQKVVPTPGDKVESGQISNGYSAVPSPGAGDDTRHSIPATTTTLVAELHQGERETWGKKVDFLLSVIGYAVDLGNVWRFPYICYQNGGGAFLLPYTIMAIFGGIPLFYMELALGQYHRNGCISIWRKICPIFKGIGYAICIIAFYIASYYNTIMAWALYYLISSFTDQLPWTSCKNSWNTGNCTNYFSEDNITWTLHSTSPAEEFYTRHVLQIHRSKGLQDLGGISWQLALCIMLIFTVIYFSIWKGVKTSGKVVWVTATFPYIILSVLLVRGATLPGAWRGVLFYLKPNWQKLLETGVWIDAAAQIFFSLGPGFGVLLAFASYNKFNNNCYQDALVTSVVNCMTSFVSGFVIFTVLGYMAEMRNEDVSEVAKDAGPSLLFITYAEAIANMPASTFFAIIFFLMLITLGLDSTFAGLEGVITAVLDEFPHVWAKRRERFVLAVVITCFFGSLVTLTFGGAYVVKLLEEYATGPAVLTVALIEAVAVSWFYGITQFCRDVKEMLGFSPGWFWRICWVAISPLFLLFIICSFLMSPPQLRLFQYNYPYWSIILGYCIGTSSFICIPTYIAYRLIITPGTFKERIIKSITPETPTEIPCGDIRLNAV
T1 sequence (P23975 whole entry): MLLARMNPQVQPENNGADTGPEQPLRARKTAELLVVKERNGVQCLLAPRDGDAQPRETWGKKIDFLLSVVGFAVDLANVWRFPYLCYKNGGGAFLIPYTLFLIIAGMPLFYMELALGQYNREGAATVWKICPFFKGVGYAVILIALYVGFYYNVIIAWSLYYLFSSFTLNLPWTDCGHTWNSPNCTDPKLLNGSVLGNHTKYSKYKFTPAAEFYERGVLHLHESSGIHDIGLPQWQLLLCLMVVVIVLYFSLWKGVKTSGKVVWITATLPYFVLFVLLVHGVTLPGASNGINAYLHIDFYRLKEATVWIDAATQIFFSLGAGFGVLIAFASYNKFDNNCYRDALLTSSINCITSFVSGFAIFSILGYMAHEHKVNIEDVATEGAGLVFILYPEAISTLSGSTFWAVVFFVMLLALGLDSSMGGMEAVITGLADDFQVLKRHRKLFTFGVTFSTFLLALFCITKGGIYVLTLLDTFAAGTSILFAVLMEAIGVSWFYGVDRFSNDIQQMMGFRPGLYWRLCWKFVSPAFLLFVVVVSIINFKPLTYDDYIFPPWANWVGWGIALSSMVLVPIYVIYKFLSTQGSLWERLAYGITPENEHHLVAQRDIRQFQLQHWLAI

Compound	Ki [1]	Ki [2, 3]	Ki [2]
CN(C)[C@@H]1CC[C@@H](c2c[nH]c3ccc(F)cc23)C1 [Compound 54, (1R,3R)-3-(5-fluoro-1H-indol-3-yl)-cyclopentyl-dimethylamine]	> 1000 nM	1 to 10 nM	
CN(CCc1ccccc1)C1CCC(c2cn(C)c3ccc(C#N)cc23)C1 (stereo not shown) [Compound 28, 1-Methyl-3-[3-(methyl-phenethyl-amino)-cyclopentyl]-1H-indole-5-carbonitrile]	100 to 1000 nM	1 to 10 nM	
CCn1cc(C2CCC(N(C)Cc3ccccc3)C2)c2cc(C#N)ccc21 (stereo not shown) [Compound 31, 3-[3-(Benzyl-methyl-amino)-cyclopentyl]-1-ethyl-1H-indole-5-carbonitrile]	> 1000 nM	1 to 10 nM	
N#Cc1ccc2[nH]cc(C3CCC(NCCc4ccccc4)C3)c2c1 (stereo not shown) [Compound 9, 3-(3-Phenethylamino-cyclopentyl)-1H-indole-5-carbonitrile]	100 to 1000 nM	1 to 10 nM	
CN(C)[C@H]1CC[C@H](c2c[nH]c3ccc(C#N)cc23)C1 [Compound 49, (1S,3S)-3-(3-dimethylaminocyclopentyl)-1H-indole-5-carbonitrile]	> 1000 nM	< 1 nM	
CCN(CC)C1CCC(c2cn(C)c3ccc(C#N)cc23)C1 (stereo not shown) [Compound 23, 3-(3-Diethylamino-cyclopentyl)-1-methyl-1H-indole-5-carbonitrile]	> 1000 nM		< 1 nM
CN(C)[C@H]1CC[C@H](c2c[nH]c3ccc(F)cc23)C1 [Compound 52, (1S,3S)-3-(5-fluoro-1H-indol-3-yl)-cyclopentyl-dimethylamine]	> 1000 nM	1 to 10 nM	
CN(C)C1CCC(c2c[nH]c3ccc(Br)cc23)C1 (stereo not shown) [Compound 40, 3-(5-Bromo-1H-indol-3-yl)-cyclopentyl-dimethyl-amine]		1 to 10 nM	
N#Cc1ccc2[nH]cc(C3CCC(NCc4ccccc4)C3)c2c1 (stereo not shown) [Compound 13, 3-(3-Benzylamino-cyclopentyl)-1H-indole-5-carbonitrile]	100 to 1000 nM	1 to 10 nM	
CCCNC1CCC(c2c[nH]c3ccc(C#N)cc23)C1 (stereo not shown) [Compound 16, 3-(3-Propylamino-cyclopentyl)-1H-indole-5-carbonitrile]	> 1000 nM		< 1 nM
CCCNC1CCC(c2cn(C)c3ccc(C#N)cc23)C1 (stereo not shown) [Compound 29, 1-Methyl-3-(3-propylamino-cyclopentyl)-1H-indole-5-carbonitrile]	> 1000 nM		< 1 nM
Cn1cc(C2CCC(NCc3ccccc3)C2)c2cc(C#N)ccc21 (stereo not shown) [Compound 19, 3-(3-Benzylamino-cyclopentyl)-1-methyl-1H-indole-5-carbonitrile]	100 to 1000 nM	1 to 10 nM	
CCNC1CCC(c2cn(C)c3ccc(C#N)cc23)C1 (stereo not shown) [Compound 18, 3-(3-Ethylamino-cyclopentyl)-1-methyl-1H-indole-5-carbonitrile]	> 1000 nM		< 1 nM
CN(C)C1CCC(c2c[nH]c3cccc(F)c23)C1 (stereo not shown) [Compound 37, 3-(4-Fluoro-1H-indol-3-yl)-cyclopentyl-dimethyl-amine]		10 to 100 nM	
CCCN(CCC)C1CCC(c2cn(C)c3ccc(C#N)cc23)C1 (stereo not shown) [Compound 30, 3-(3-Dipropylamino-cyclopentyl)-1-methyl-1H-indole-5-carbonitrile]	> 1000 nM	< 1 nM	
N#Cc1ccc2[nH]cc(C3CCC(N4CCCC4)C3)c2c1 (stereo not shown) [Compound 6, 3-(3-Pyrrolidin-1-yl-cyclopentyl)-1H-indole-5-carbonitrile]	> 1000 nM		1 to 10 nM
CCn1cc([C@H]2CC[C@@H](N(C)C)C2)c2cc(C#N)ccc21 [Compound 56, (1S,3R)-3-(3-Dimethylamino-cyclopentyl)-1-ethyl-1H-indole-5-carbonitrile]	> 1000 nM	< 1 nM	
CNC1CCC(c2c[nH]c3ccc(C#N)cc23)C1 (stereo not shown) [Compound 1, 3-(3-Methylamino-cyclopentyl)-1H-indole-5-carbonitrile]	> 1000 nM		1 to 10 nM
CCn1cc([C@@H]2CC[C@@H](N(C)C)C2)c2cc(C#N)ccc21 [Compound 59, (1R,3R)-3-(3-Dimethylamino-cyclopentyl)-1-ethyl-1H-indole-5-carbonitrile]	> 1000 nM	1 to 10 nM	

Compound	Ki [1]	Ki [2, 3]	Ki [2]
CN(C)C1CCC(c2c[nH]c3cc(F)ccc23)C1 (stereo not shown) [Compound 42, 3-(6-Fluoro-1H-indol-3-yl)-cyclopentyl-dimethyl-amine]		1 to 10 nM	
CN(C)C1CCC(c2c[nH]c3cc(Br)ccc23)C1 (stereo not shown) [Compound 44, 3-(6-Bromo-1H-indol-3-yl)-cyclopentyl-dimethyl-amine]		1 to 10 nM	
CN(C)C1CCC(c2c[nH]c3c(Cl)cccc23)C1 (stereo not shown) [Compound 46, 3-(7-Chloro-1H-indol-3-yl)-cyclopentyl-dimethyl-amine]		< 1 nM	
CCn1cc(C2CCC(N(C)C)C2)c2cc(C#N)ccc21 (stereo not shown) [Compound 32, 3-(3-Dimethylamino-cyclopentyl)-1-ethyl-1H-indole-5-carbonitrile]	> 1000 nM	< 1 nM	
N#Cc1ccc2[nH]cc([C@H]3CCC(N)C3)c2c1 (stereo partly drawn) [Compound 60, (1S)-3-(3-Amino-cyclopentyl)-1H-indole-05-carbonitrile]		10 to 100 nM	
CN(C)C1CCC(c2c[nH]c3ccc(Cl)cc23)C1 (stereo not shown) [Compound 39, 3-(5-Chloro-1H-indol-3-yl)-cyclopentyl-dimethyl-amine]		1 to 10 nM	
CN(C)[C@@H]1CC[C@H](c2c[nH]c3ccc(F)cc23)C1 [Compound 53, (1R,3S)-3-(5-fluoro-1H-indol-3-yl)-cyclopentyl-dimethylamine]	> 1000 nM	< 1 nM	
CCN(CC)C1CCC(c2c[nH]c3ccc(C#N)cc23)C1 (stereo not shown) [Compound 5, 3-(3-Diethylamino-cyclopentyl)-1H-indole-5-carbonitrile]	> 1000 nM	1 to 10 nM	
CN(C)C1CCC(c2c[nH]c3c(Br)cccc23)C1 (stereo not shown) [Compound 47, 3-(7-Bromo-1H-indol-3-yl)-cyclopentyl-dimethyl-amine]		1 to 10 nM	
CCn1cc([C@@H]2CC[C@H](N(C)C)C2)c2cc(C#N)ccc21 [Compound 58, (1R,3S)-3-(3-Dimethylamino-cyclopentyl)-1-ethyl-1H-indole-5-carbonitrile]	> 1000 nM	< 1 nM	
CCCN(CCC)C1CCC(c2c[nH]c3ccc(C#N)cc23)C1 (stereo not shown) [Compound 15, 3-(3-Dipropylamino-cyclopentyl)-1H-indole-5-carbonitrile]	> 1000 nM	1 to 10 nM	
CN(C)C1CCC(c2c[nH]c3ccc(C#N)cc23)C1 (stereo not shown) [Compound 3, 3-(3-Dimethylamino-cyclopentyl)-1H-indole-5-carbonitrile]	> 1000 nM	< 1 nM	
CCN(C)C1CCC(c2cn(C)c3ccc(C#N)cc23)C1 (stereo not shown) [Compound 22, 3-[3-(Ethyl-methyl-amino)-cyclopentyl]-1-methyl-1H-indole-5-carbonitrile]	> 1000 nM		1 to 10 nM
CN(C)C1CCC(c2c[nH]c3cccc(Br)c23)C1 (stereo not shown) [Compound 38, 3-(4-Bromo-1H-indol-3-yl)-cyclopentyl-dimethyl-amine]		1 to 10 nM	
CN(C)C1CCC(c2c[nH]c3cc(Cl)ccc23)C1 (stereo not shown) [Compound 43, 3-(6-Chloro-1H-indol-3-yl)-cyclopentyl-dimethyl-amine]		1 to 10 nM	
N#Cc1ccc2[nH]cc([C@H]3CCC(NC4CC[C@H](c5c[nH]c6ccc(C#N)cc56)C4)C3)c2c1 (stereo partly drawn) [Compound 61, (3S,3′S)-bis-(3-(5-cyano-1H-indol-3-yl)cyclopentyl)amine]		1 to 10 nM	
CN(C)C1CCC(c2c[nH]c3ccc(I)cc23)C1 (stereo not shown) [Compound 41, 3-(5-Iodo-1H-indol-3-yl)-cyclopentyl-dimethyl-amine]		10 to 100 nM	
CN(C)C1CCC(c2c[nH]c3c(F)cccc23)C1 (stereo not shown) [Compound 45, 3-(7-Fluoro-1H-indol-3-yl)-cyclopentyl-dimethyl-amine]		1 to 10 nM	
